Assay results: patent US9593305B2, “Differentiation of pluripotent stem cells” (Janssen Biotech, Inc., priority 2008, dated 2017)

Tested on: H1 human embryonic stem cells
Experiment: Secondary assay: compound combined with individual growth factors or small molecules, no activin A (Example 5, Table 4);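 as to Cell Number, Average Total Cell Number: Four-day assay with feeding on alternate days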;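 as to Sox17 Expression, Average Total Intensity: Four-day assay with feeding on alternate days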
Format: cell-based
[1] = no AA (with Wnt3a), EGF + FGF4 + PDGF-A + Muscimol
[2] = no AA (with Wnt3a), EGF + FGF4 + PDGF-A + VEGF
[3] = no AA (with Wnt3a), EGF + FGF4 + PDGF-AB
[4] = no AA (with Wnt3a), EGF + FGF4 + PDGF-AB + Muscimol
[5] = no AA (with Wnt3a), EGF + PDGF-A + VEGF
[6] = no AA (with Wnt3a), FGF4 + PDGF-A + VEGF
[7] = no AA (with Wnt3a), bicuculline

O=C1NCCCc2cncc(c2)-c2ncnc(n2)Nc2cccc(c2)CN2CCCC1C2 (centres unmarked) [Compound 17, 3,5,7,14,20,26,31-Heptaazapentacyclo[22.3.1.1-2,6˜1˜8,12˜1˜14,18˜]hentriaconta-1(28), 2(31), 3,5,8(30), 9,11,24,26-nonaen-19-one]
Cell Number, % of positive control (no AA (with Wnt3a), EGF): 73.43%
Cell Number, Average Total Cell Number (no AA (with Wnt3a), EGF): 6942
Sox17 Expression, % of positive control (no AA (with Wnt3a), EGF): 0.74%
Sox17 Expression, Average Total Intensity (no AA (with Wnt3a), EGF): 1.27E+06
Cell Number, % of positive control (no AA (with Wnt3a), EGF + FGF4): 60.69%
Cell Number, Average Total Cell Number (no AA (with Wnt3a), EGF + FGF4): 5738
Sox17 Expression, % of positive control (no AA (with Wnt3a), EGF + FGF4): 1.83%
Sox17 Expression, Average Total Intensity (no AA (with Wnt3a), EGF + FGF4): 3.14E+06
Cell Number, % of positive control [1]: 144.37%
Cell Number, Average Total Cell Number [1]: 13649
Sox17 Expression, % of positive control [1]: 8.43%
Sox17 Expression, Average Total Intensity [1]: 1.45E+07
Cell Number, % of positive control [2]: 110.85%
Cell Number, Average Total Cell Number [2]: 10480
Sox17 Expression, % of positive control [2]: 5.23%
Sox17 Expression, Average Total Intensity [2]: 8.97E+06
Cell Number, % of positive control [3]: 47.10%
Cell Number, Average Total Cell Number [3]: 4453
Sox17 Expression, % of positive control [3]: 0.54%
Sox17 Expression, Average Total Intensity [3]: 9.30E+05
Cell Number, % of positive control [4]: 109.91%
Cell Number, Average Total Cell Number [4]: 10391
Sox17 Expression, % of positive control [4]: 5.20%
Sox17 Expression, Average Total Intensity [4]: 8.92E+06
Cell Number, % of positive control [5]: 60.59%
Cell Number, Average Total Cell Number [5]: 5728
Sox17 Expression, % of positive control [5]: 1.24%
Sox17 Expression, Average Total Intensity [5]: 2.14E+06
Cell Number, % of positive control [6]: 139.59%
Cell Number, Average Total Cell Number [6]: 13198
Sox17 Expression, % of positive control [6]: 7.54%
Sox17 Expression, Average Total Intensity [6]: 1.29E+07

CCN1CC(=O)NCCCc2cncc(c2)-c2ncnc(n2)Nc2cc(Cl)cc(c2)C1 [Compound 35, 10-Chloro-14-ethyl-3,5,7,14,17,23,27-heptaazatetracyclo[19.3.1.1˜2,6˜0.1˜8,12]Theptacosa-1(25), 2(27), 3,5,8(26), 9,11,21,23-nonaen-16-one]
Cell Number, % of positive control (no AA (with Wnt3a), BMP1): 210.81%
Cell Number, Average Total Cell Number (no AA (with Wnt3a), BMP1): 18849
Sox17 Expression, % of positive control (no AA (with Wnt3a), BMP1): 6.59%
Sox17 Expression, Average Total Intensity (no AA (with Wnt3a), BMP1): 1.29E+07
Cell Number, % of positive control (no AA (with Wnt3a), BMP2): 181.38%
Cell Number, Average Total Cell Number (no AA (with Wnt3a), BMP2): 16218
Sox17 Expression, % of positive control (no AA (with Wnt3a), BMP2): 4.55%
Sox17 Expression, Average Total Intensity (no AA (with Wnt3a), BMP2): 8.89E+06
Cell Number, % of positive control (no AA (with Wnt3a), BMP2/7): 134.67%
Cell Number, Average Total Cell Number (no AA (with Wnt3a), BMP2/7): 12042
Sox17 Expression, % of positive control (no AA (with Wnt3a), BMP2/7): 3.62%
Sox17 Expression, Average Total Intensity (no AA (with Wnt3a), BMP2/7): 7.08E+06
Cell Number, % of positive control (no AA (with Wnt3a), BMP4): 187.31%
Cell Number, Average Total Cell Number (no AA (with Wnt3a), BMP4): 16748
Sox17 Expression, % of positive control (no AA (with Wnt3a), BMP4): 4.59%
Sox17 Expression, Average Total Intensity (no AA (with Wnt3a), BMP4): 8.97E+06
Cell Number, % of positive control (no AA (with Wnt3a), BMP7): 224.91%
Cell Number, Average Total Cell Number (no AA (with Wnt3a), BMP7): 20111
Sox17 Expression, % of positive control (no AA (with Wnt3a), BMP7): 4.12%
Sox17 Expression, Average Total Intensity (no AA (with Wnt3a), BMP7): 8.05E+06
Cell Number, % of positive control (no AA (with Wnt3a), Butyrate): 159.24%
Cell Number, Average Total Cell Number (no AA (with Wnt3a), Butyrate): 14238
Sox17 Expression, % of positive control (no AA (with Wnt3a), Butyrate): −0.94%
Sox17 Expression, Average Total Intensity (no AA (with Wnt3a), Butyrate): −1.85E+06
Cell Number, % of positive control (no AA (with Wnt3a), EGF): 216.23%
Cell Number, Average Total Cell Number (no AA (with Wnt3a), EGF): 19334
Sox17 Expression, % of positive control (no AA (with Wnt3a), EGF): 33.86%
Sox17 Expression, Average Total Intensity (no AA (with Wnt3a), EGF): 6.62E+07
Cell Number, % of positive control (no AA (with Wnt3a), FGF4): 49.32%
Cell Number, Average Total Cell Number (no AA (with Wnt3a), FGF4): 4410
Sox17 Expression, % of positive control (no AA (with Wnt3a), FGF4): 17.04%
Sox17 Expression, Average Total Intensity (no AA (with Wnt3a), FGF4): 3.33E+07
Cell Number, % of positive control (no AA (with Wnt3a), LY294002): 205.49%
Cell Number, Average Total Cell Number (no AA (with Wnt3a), LY294002): 18374
Sox17 Expression, % of positive control (no AA (with Wnt3a), LY294002): 5.28%
Sox17 Expression, Average Total Intensity (no AA (with Wnt3a), LY294002): 1.03E+07
Cell Number, % of positive control (no AA (with Wnt3a), Muscimol): 211.00%
Cell Number, Average Total Cell Number (no AA (with Wnt3a), Muscimol): 18867
Sox17 Expression, % of positive control (no AA (with Wnt3a), Muscimol): 13.35%
Sox17 Expression, Average Total Intensity (no AA (with Wnt3a), Muscimol): 2.61E+07
Cell Number, % of positive control (no AA (with Wnt3a), PD98059): 211.11%
Cell Number, Average Total Cell Number (no AA (with Wnt3a), PD98059): 18877
Sox17 Expression, % of positive control (no AA (with Wnt3a), PD98059): 6.64%
Sox17 Expression, Average Total Intensity (no AA (with Wnt3a), PD98059): 1.30E+07
Cell Number, % of positive control (no AA (with Wnt3a), PDGF-A): 188.84%
Cell Number, Average Total Cell Number (no AA (with Wnt3a), PDGF-A): 16885
Sox17 Expression, % of positive control (no AA (with Wnt3a), PDGF-A): 22.94%
Sox17 Expression, Average Total Intensity (no AA (with Wnt3a), PDGF-A): 4.48E+07
Cell Number, % of positive control (no AA (with Wnt3a), PDGF-AB): 186.34%
Cell Number, Average Total Cell Number (no AA (with Wnt3a), PDGF-AB): 16662
Sox17 Expression, % of positive control (no AA (with Wnt3a), PDGF-AB): 25.33%
Sox17 Expression, Average Total Intensity (no AA (with Wnt3a), PDGF-AB): 4.95E+07
Cell Number, % of positive control (no AA (with Wnt3a), PDGF-B): 158.46%
Cell Number, Average Total Cell Number (no AA (with Wnt3a), PDGF-B): 14168
Sox17 Expression, % of positive control (no AA (with Wnt3a), PDGF-B): 7.76%
Sox17 Expression, Average Total Intensity (no AA (with Wnt3a), PDGF-B): 1.52E+07
Cell Number, % of positive control (no AA (with Wnt3a), PDGF-C): 186.12%
Cell Number, Average Total Cell Number (no AA (with Wnt3a), PDGF-C): 16642
Sox17 Expression, % of positive control (no AA (with Wnt3a), PDGF-C): 9.46%
Sox17 Expression, Average Total Intensity (no AA (with Wnt3a), PDGF-C): 1.85E+07
Cell Number, % of positive control (no AA (with Wnt3a), PDGF-D): 197.03%
Cell Number, Average Total Cell Number (no AA (with Wnt3a), PDGF-D): 17618
Sox17 Expression, % of positive control (no AA (with Wnt3a), PDGF-D): 9.41%
Sox17 Expression, Average Total Intensity (no AA (with Wnt3a), PDGF-D): 1.84E+07
Cell Number, % of positive control (no AA (with Wnt3a), U0124): 184.97%
Cell Number, Average Total Cell Number (no AA (with Wnt3a), U0124): 16539
Sox17 Expression, % of positive control (no AA (with Wnt3a), U0124): 3.86%
Sox17 Expression, Average Total Intensity (no AA (with Wnt3a), U0124): 7.54E+06
Cell Number, % of positive control (no AA (with Wnt3a), U0126): 223.24%
Cell Number, Average Total Cell Number (no AA (with Wnt3a), U0126): 19961
Sox17 Expression, % of positive control (no AA (with Wnt3a), U0126): −0.29%
Sox17 Expression, Average Total Intensity (no AA (with Wnt3a), U0126): −5.75E+05
Cell Number, % of positive control (no AA (with Wnt3a), VEGF): 204.25%
Cell Number, Average Total Cell Number (no AA (with Wnt3a), VEGF): 18263
Sox17 Expression, % of positive control (no AA (with Wnt3a), VEGF): 17.98%
Sox17 Expression, Average Total Intensity (no AA (with Wnt3a), VEGF): 3.51E+07
Cell Number, % of positive control [7]: 215.98%
Cell Number, Average Total Cell Number [7]: 19312
Sox17 Expression, % of positive control [7]: 1.00%
Sox17 Expression, Average Total Intensity [7]: 1.95E+06
Cell Number, % of positive control (no AA (with Wut3a), BMP6): 199.50%
Cell Number, Average Total Cell Number (no AA (with Wut3a), BMP6): 17838
Sox17 Expression, % of positive control (no AA (with Wut3a), BMP6): 3.75%
Sox17 Expression, Average Total Intensity (no AA (with Wut3a), BMP6): 7.32E+06
